Results published in patent US10405547B2, “Substituted cyclic amides as herbicides” (FMC Corporation, priority 2015, dated 2019).

Legend:
Assay type in all cases: in vivo
[1] = tested on: barnyardgrass (Echinochloa crus-galli); assay: Test A postemergence, barnyardgrass; conditions: visual injury, 0 to 100 scale (0 no effect, 100 complete control), approximately 10 days
Method in brief: (§1)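 Visual injury on a 0 to 100 scale, about 10 days post-spray in the greenhouse. Postemergence plants measured 2–10 cm at one to two leaves; preemergence pots received a directed soil spray. Soil was a loam–sand blend.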

[2] = tested on: foxtail, giant (Setaria faberii); assay: Test A postemergence, giant foxtail; conditions: visual injury, 0 to 100 scale (0 no effect, 100 complete control), approximately 10 days
Method in brief: as §1

[3] = tested on: ryegrass, Italian (Lolium multiflorum); assay: Test A preemergence, Italian ryegrass; conditions: 0 to 100 scale (0 no effect, 100 complete control)
Method in brief: as §1

[4] = tested on: kochia (Kochia scoparia); assay: Test A postemergence, kochia; conditions: visual injury, 0 to 100 scale (0 no effect, 100 complete control), approximately 10 days
Method in brief: as §1

[5] = tested on: barnyardgrass (Echinochloa crus-galli); assay: Test A preemergence, barnyardgrass; conditions: 0 to 100 scale (0 no effect, 100 complete control)
Method in brief: as §1

[6] = tested on: kochia (Kochia scoparia); assay: Test A preemergence, kochia; conditions: 0 to 100 scale (0 no effect, 100 complete control)
Method in brief: as §1

[7] = tested on: foxtail, giant (Setaria faberii); assay: Test A preemergence, giant foxtail; conditions: 0 to 100 scale (0 no effect, 100 complete control)
Method in brief: as §1

[8] = tested on: sedge, umbrella (small-flower umbrella sedge, Cyperus difformis); assay: Test B flooded paddy test, umbrella sedge; conditions: 500 g ai/ha, applied to paddy water, visual rating after 13 to 15 days, scale 0 (no effect) to 100 (complete control)
Method in brief: (§2)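 Under a constant 3 cm flood, test compounds went directly into the paddy water. Following 13 to 15 days of greenhouse growth, treated species and controls were compared by eye.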

[9] = tested on: rice (Oryza sativa); assay: Test B flooded paddy test, rice; conditions: 500 g ai/ha, applied to paddy water, visual rating after 13 to 15 days, scale 0 (no effect) to 100 (complete control)
Method in brief: as §2

[10] = tested on: wheat (Triticum aestivum); assay: Test A postemergence, wheat; conditions: visual injury, 0 to 100 scale (0 no effect, 100 complete control), approximately 10 days
Method in brief: as §1

[11] = tested on: pigweed (Amaranthus retroflexus); assay: Test A postemergence, pigweed; conditions: visual injury, 0 to 100 scale (0 no effect, 100 complete control), approximately 10 days
Method in brief: as §1

[12] = tested on: galium (catchweed bedstraw, Galium aparine); assay: Test A postemergence, galium; conditions: visual injury, 0 to 100 scale (0 no effect, 100 complete control), approximately 10 days
Method in brief: as §1

[13] = tested on: ryegrass, Italian (Lolium multiflorum); assay: Test A postemergence, Italian ryegrass; conditions: visual injury, 0 to 100 scale (0 no effect, 100 complete control), approximately 10 days
Method in brief: as §1

[14] = tested on: corn (Zea mays); assay: Test A postemergence, corn; conditions: visual injury, 0 to 100 scale (0 no effect, 100 complete control), approximately 10 days
Method in brief: as §1

[15] = tested on: ragweed (common ragweed, Ambrosia elatior); assay: Test A preemergence, ragweed; conditions: 0 to 100 scale (0 no effect, 100 complete control)
Method in brief: as §1

[16] = tested on: ragweed (common ragweed, Ambrosia elatior); assay: Test A postemergence, ragweed; conditions: visual injury, 0 to 100 scale (0 no effect, 100 complete control), approximately 10 days
Method in brief: as §1

[17] = tested on: blackgrass (Alopecurus myosuroides); assay: Test A postemergence, blackgrass; conditions: visual injury, 0 to 100 scale (0 no effect, 100 complete control), approximately 10 days
Method in brief: as §1

[18] = tested on: barnyardgrass (Echinochloa crus-galli); assay: Test B flooded paddy test, barnyardgrass; conditions: 500 g ai/ha, applied to paddy water, visual rating after 13 to 15 days, scale 0 (no effect) to 100 (complete control)
Method in brief: as §2

[19] = tested on: pigweed (Amaranthus retroflexus); assay: Test A preemergence, pigweed; conditions: 0 to 100 scale (0 no effect, 100 complete control)
Method in brief: as §1

[20] = tested on: ducksalad (Heteranthera limosa); assay: Test B flooded paddy test, ducksalad; conditions: 500 g ai/ha, applied to paddy water, visual rating after 13 to 15 days, scale 0 (no effect) to 100 (complete control)
Method in brief: as §2

SMILES | Plant response rating, Barnyardgrass ([1]; 125 g ai/ha) | Plant response rating, Barnyardgrass ([1]; 500 g ai/ha) | Plant response rating, Foxtail, Giant ([2]; 125 g ai/ha) | Plant response rating, Foxtail, Giant ([2]; 500 g ai/ha) | Plant response rating, Ryegrass, Italian ([3]; 125 g ai/ha) | Plant response rating, Ryegrass, Italian ([3]; 500 g ai/ha) | Plant response rating, Kochia ([4]; 125 g ai/ha) | Plant response rating, Kochia ([4]; 500 g ai/ha) | Plant response rating, Barnyardgrass ([5]; 125 g ai/ha) | Plant response rating, Barnyardgrass ([5]; 500 g ai/ha) | Plant response rating, Kochia ([6]; 125 g ai/ha) | Plant response rating, Kochia ([6]; 500 g ai/ha) | Plant response rating, Foxtail, Giant ([7]; 125 g ai/ha) | Plant response rating, Foxtail, Giant ([7]; 500 g ai/ha) | Plant response rating, Sedge, Umbrella (Flood) [8] | Plant response rating, Rice (Flood) [9] | Plant response rating, Wheat ([10]; 125 g ai/ha) | Plant response rating, Wheat ([10]; 500 g ai/ha) | Plant response rating, Pigweed ([11]; 125 g ai/ha) | Plant response rating, Pigweed ([11]; 500 g ai/ha) | further results
O=C1NCC(c2cccc(OCc3ccccc3)c2)C1C(=O)Nc1ccccc1F (stereo not drawn) [Compound 63] | 0 | 0 | 0 | 0 | 0 | 0 | 0 | 0 | 0 | 0 | 0 | 0 | 0 | 0 | 0 | 0 | 0 | 0 | 0 | 0 | Plant response rating, Galium ([12]; 125 g ai/ha): 0; Plant response rating, Galium ([12]; 500 g ai/ha): 0; Plant response rating, Ryegrass, Italian ([13]; 125 g ai/ha): 0; Plant response rating, Ryegrass, Italian ([13]; 500 g ai/ha): 0; Plant response rating, Corn ([14]; 125 g ai/ha): 0; Plant response rating, Corn ([14]; 500 g ai/ha): 0; Plant response rating, Ragweed ([15]; 125 g ai/ha): 0; Plant response rating, Ragweed ([15]; 500 g ai/ha): 0; Plant response rating, Ragweed ([16]; 125 g ai/ha): 0; Plant response rating, Ragweed ([16]; 500 g ai/ha): 0; Plant response rating, Blackgrass ([17]; 125 g ai/ha): 0; Plant response rating, Blackgrass ([17]; 500 g ai/ha): 0; Plant response rating, Barnyardgrass (Flood) [18]: 0; Plant response rating, Pigweed ([19]; 125 g ai/ha): 0; Plant response rating, Pigweed ([19]; 500 g ai/ha): 0; Plant response rating, Ducksalad (Flood) [20]: 35
O=C1NCC(c2cccc(OCc3ccccc3)c2)C1C(=O)Nc1ccc(F)cc1F (stereo not drawn) [Compound 64] | 0 | 0 | 0 | 0 | 0 | 0 | 0 | 0 | 0 | 0 | 0 | 0 | 0 | 0 | 0 | 0 | 0 | 0 | 0 | 0 | Plant response rating, Galium ([12]; 125 g ai/ha): 0; Plant response rating, Galium ([12]; 500 g ai/ha): 0; Plant response rating, Ryegrass, Italian ([13]; 125 g ai/ha): 0; Plant response rating, Ryegrass, Italian ([13]; 500 g ai/ha): 0; Plant response rating, Corn ([14]; 125 g ai/ha): 0; Plant response rating, Corn ([14]; 500 g ai/ha): 0; Plant response rating, Ragweed ([15]; 125 g ai/ha): 0; Plant response rating, Ragweed ([15]; 500 g ai/ha): 0; Plant response rating, Ragweed ([16]; 125 g ai/ha): 0; Plant response rating, Ragweed ([16]; 500 g ai/ha): 0; Plant response rating, Blackgrass ([17]; 125 g ai/ha): 0; Plant response rating, Blackgrass ([17]; 500 g ai/ha): 0; Plant response rating, Barnyardgrass (Flood) [18]: 0; Plant response rating, Pigweed ([19]; 125 g ai/ha): 0; Plant response rating, Pigweed ([19]; 500 g ai/ha): 0; Plant response rating, Ducksalad (Flood) [20]: 35
O=C1NCC(c2cccc(OCc3ccccc3)c2)C1C(=O)Nc1cccc(F)c1F (stereo not drawn) [Compound 65] | 0 | 0 | 0 | 0 | 0 | 0 | 0 | 0 | 0 | 0 | 0 | 0 | 0 | 0 | 0 | 0 | 0 | 0 | 0 | 0 | Plant response rating, Galium ([12]; 125 g ai/ha): 0; Plant response rating, Galium ([12]; 500 g ai/ha): 0; Plant response rating, Ryegrass, Italian ([13]; 125 g ai/ha): 0; Plant response rating, Ryegrass, Italian ([13]; 500 g ai/ha): 0; Plant response rating, Corn ([14]; 125 g ai/ha): 0; Plant response rating, Corn ([14]; 500 g ai/ha): 0; Plant response rating, Ragweed ([15]; 125 g ai/ha): 0; Plant response rating, Ragweed ([15]; 500 g ai/ha): 0; Plant response rating, Ragweed ([16]; 125 g ai/ha): 0; Plant response rating, Ragweed ([16]; 500 g ai/ha): 0; Plant response rating, Blackgrass ([17]; 125 g ai/ha): 0; Plant response rating, Blackgrass ([17]; 500 g ai/ha): 0; Plant response rating, Barnyardgrass (Flood) [18]: 0; Plant response rating, Pigweed ([19]; 125 g ai/ha): 0; Plant response rating, Pigweed ([19]; 500 g ai/ha): 0; Plant response rating, Ducksalad (Flood) [20]: 0
O=C1NCC(c2cccc(OCc3ccccc3)c2)C1C(=O)Nc1ccc(F)c(F)c1F (stereo not drawn) [Compound 66] | 0 | 0 | 0 | 0 | 0 | 0 | 0 | 0 | 0 | 0 | 0 | 0 | 0 | 0 | 0 | 0 | 0 | 0 | 0 | 0 | Plant response rating, Galium ([12]; 125 g ai/ha): 0; Plant response rating, Galium ([12]; 500 g ai/ha): 0; Plant response rating, Ryegrass, Italian ([13]; 125 g ai/ha): 0; Plant response rating, Ryegrass, Italian ([13]; 500 g ai/ha): 0; Plant response rating, Corn ([14]; 125 g ai/ha): 0; Plant response rating, Corn ([14]; 500 g ai/ha): 0; Plant response rating, Ragweed ([15]; 125 g ai/ha): 0; Plant response rating, Ragweed ([15]; 500 g ai/ha): 0; Plant response rating, Ragweed ([16]; 125 g ai/ha): 0; Plant response rating, Ragweed ([16]; 500 g ai/ha): 0; Plant response rating, Blackgrass ([17]; 125 g ai/ha): 0; Plant response rating, Blackgrass ([17]; 500 g ai/ha): 0; Plant response rating, Barnyardgrass (Flood) [18]: 0; Plant response rating, Pigweed ([19]; 125 g ai/ha): 0; Plant response rating, Pigweed ([19]; 500 g ai/ha): 0; Plant response rating, Ducksalad (Flood) [20]: 0
O=C1NCC(c2cccc(OCc3ccccc3)c2)C1C(=O)Nc1ccccc1Cl (stereo not drawn) [Compound 67] | 0 | 0 | 0 | 0 | 0 | 0 | 0 | 0 | 0 | 0 | 0 | 0 | 0 | 0 | 0 | 0 | 0 | 0 | 0 | 0 | Plant response rating, Galium ([12]; 125 g ai/ha): 0; Plant response rating, Galium ([12]; 500 g ai/ha): 0; Plant response rating, Ryegrass, Italian ([13]; 125 g ai/ha): 0; Plant response rating, Ryegrass, Italian ([13]; 500 g ai/ha): 0; Plant response rating, Corn ([14]; 125 g ai/ha): 0; Plant response rating, Corn ([14]; 500 g ai/ha): 0; Plant response rating, Ragweed ([15]; 125 g ai/ha): 0; Plant response rating, Ragweed ([15]; 500 g ai/ha): 0; Plant response rating, Ragweed ([16]; 125 g ai/ha): 0; Plant response rating, Ragweed ([16]; 500 g ai/ha): 0; Plant response rating, Blackgrass ([17]; 125 g ai/ha): 0; Plant response rating, Blackgrass ([17]; 500 g ai/ha): 0; Plant response rating, Barnyardgrass (Flood) [18]: 0; Plant response rating, Pigweed ([19]; 125 g ai/ha): 0; Plant response rating, Pigweed ([19]; 500 g ai/ha): 0; Plant response rating, Ducksalad (Flood) [20]: 0
